Reference: US12187699B2, “GSPT1 compounds and methods of use of the novel compounds” (BRISTOL-MYERS SQUIBB COMPANY, priority 2022, dated 2025)

Molecular target: T1, ePL-tagged GSPT1 (Homo sapiens, UniProt P15170+Q96SW2)
T1 construct: expressed in transfected cells; host or cells: DF15 multiple myeloma cells
Assay: GSPT1 DiscoverX Degradation Assay
Format: cell-based
Settings: DF15 multiple myeloma cells expressing ePL-tagged GSPT1; twenty hours; minimum of percent of control curve (Ataluren control Y constant=0, DMSO control = Y max)
Experimental: GSPT1 DiscoverX Degradation Assay.
Compounds were dispensed by an acoustic dispenser (ATS Acoustic Transfer System from EDC Biosystems) into a 384-well in a 10 pt dose response curve using 3 fold dilutions starting at 10 uM and going down to 0.0005 uM in DMSO. A DMSO control is added to the assay. […] Assay plates were incubated at 37° C. with 5% CO2 for twenty hours. After incubation, 25 μl of the InCELL Hunter™ Detection Reagent Working Solution (DiscoverX, cat #96-0002, Fremont, CA) was added to each well and incubated at room temperature for 30 minutes protected from light. After 30 minutes, luminescence was read on a PHERAstar luminometer (Cary, NC).
The minimum Y is reference to the Y constant. In the GSPT1 degradation assay, we use Ataluren® (luciferase inhibitor) as the control with a Y constant=0. The maximum limit is the Y max DMSO control. All percent of control GSPT1 degradation curves were processed and evaluated using Activity Base (IDBS).

T1 sequence (P15170 whole entry): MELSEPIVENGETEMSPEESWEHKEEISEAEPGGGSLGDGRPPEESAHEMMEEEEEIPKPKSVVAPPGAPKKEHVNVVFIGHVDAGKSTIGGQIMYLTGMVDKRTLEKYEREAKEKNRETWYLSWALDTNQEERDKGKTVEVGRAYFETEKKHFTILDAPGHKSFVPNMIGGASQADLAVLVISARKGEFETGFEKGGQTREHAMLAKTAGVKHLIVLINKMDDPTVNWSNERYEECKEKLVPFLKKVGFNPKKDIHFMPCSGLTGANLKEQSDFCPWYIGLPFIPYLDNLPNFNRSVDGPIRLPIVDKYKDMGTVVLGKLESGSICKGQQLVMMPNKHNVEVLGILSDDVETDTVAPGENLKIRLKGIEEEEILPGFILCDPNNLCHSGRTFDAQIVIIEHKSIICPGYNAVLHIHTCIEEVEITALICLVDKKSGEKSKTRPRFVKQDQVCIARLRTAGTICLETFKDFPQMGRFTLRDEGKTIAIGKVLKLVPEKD
T1 sequence (Q96SW2 whole entry): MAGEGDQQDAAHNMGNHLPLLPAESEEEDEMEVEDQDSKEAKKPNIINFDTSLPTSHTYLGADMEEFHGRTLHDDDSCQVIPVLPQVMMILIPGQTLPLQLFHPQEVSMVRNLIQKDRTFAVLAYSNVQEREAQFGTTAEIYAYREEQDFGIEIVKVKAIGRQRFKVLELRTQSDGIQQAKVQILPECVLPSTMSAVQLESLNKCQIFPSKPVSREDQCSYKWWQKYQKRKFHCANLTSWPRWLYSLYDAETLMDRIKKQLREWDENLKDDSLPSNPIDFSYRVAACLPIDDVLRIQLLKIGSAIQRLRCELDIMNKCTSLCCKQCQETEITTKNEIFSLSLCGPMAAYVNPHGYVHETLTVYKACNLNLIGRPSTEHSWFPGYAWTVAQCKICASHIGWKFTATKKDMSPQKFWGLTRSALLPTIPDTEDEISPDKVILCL
T1 sequence (Q16531 whole entry partner): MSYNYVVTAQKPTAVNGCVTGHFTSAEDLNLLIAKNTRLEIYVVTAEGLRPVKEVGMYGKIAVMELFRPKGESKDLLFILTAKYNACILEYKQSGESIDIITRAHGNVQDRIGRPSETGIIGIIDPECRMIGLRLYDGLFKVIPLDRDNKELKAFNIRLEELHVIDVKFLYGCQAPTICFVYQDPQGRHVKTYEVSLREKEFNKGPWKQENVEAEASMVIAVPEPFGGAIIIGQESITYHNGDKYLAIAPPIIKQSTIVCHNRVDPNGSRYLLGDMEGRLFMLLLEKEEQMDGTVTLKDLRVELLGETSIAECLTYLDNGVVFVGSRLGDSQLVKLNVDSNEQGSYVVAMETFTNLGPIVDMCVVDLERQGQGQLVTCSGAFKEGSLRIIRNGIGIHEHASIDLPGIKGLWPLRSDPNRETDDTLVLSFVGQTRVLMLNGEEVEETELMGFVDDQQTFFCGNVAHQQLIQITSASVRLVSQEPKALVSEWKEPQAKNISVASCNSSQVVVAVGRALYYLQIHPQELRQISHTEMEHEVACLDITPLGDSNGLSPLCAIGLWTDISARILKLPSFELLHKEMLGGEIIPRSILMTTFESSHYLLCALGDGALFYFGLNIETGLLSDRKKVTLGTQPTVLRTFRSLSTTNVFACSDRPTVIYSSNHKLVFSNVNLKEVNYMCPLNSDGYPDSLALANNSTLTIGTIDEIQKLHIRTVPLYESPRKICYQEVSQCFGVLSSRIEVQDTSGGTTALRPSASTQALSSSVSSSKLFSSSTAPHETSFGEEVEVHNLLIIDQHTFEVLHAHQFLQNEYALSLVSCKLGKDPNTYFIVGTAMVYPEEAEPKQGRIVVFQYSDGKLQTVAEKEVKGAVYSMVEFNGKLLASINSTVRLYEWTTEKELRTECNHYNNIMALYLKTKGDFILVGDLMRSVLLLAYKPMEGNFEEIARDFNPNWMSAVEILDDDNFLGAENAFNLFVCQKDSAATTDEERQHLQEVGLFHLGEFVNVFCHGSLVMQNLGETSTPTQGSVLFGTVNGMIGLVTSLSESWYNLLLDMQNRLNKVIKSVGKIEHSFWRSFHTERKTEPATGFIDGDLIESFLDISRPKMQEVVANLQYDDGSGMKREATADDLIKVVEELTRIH

Row | SMILES | GSPT1 Degradation Ymin
1 | CCCc1cc(CN)ccc1COc1ccc(NC(=O)NCc2ccc3c(c2)CN(C2CCC(=O)NC2=O)C3=O)cc1 (centres unmarked) [Example 22, 1-(4-{[4-(aminomethyl)-2-n-propylphenyl]methoxy}phenyl)-3-{[2-(2,6-dioxopiperidin-3-yl)-1-oxo-2,3-dihydro-1H-isoindol-5-yl]methyl}urea] | 9.46
2 | COc1cc(CN)ccc1COc1ccc(NC(=O)NCc2ccc3c(c2)CN(C2CCC(=O)NC2=O)C3=O)cc1 (centres unmarked) [Example 23, 1-(4-{[4-(aminomethyl)-2-methoxyphenyl]methoxy}phenyl)-3-{[2-(2,6-dioxopiperidin-3-yl)-1-oxo-2,3-dihydro-1H-isoindol-5-yl]methyl}urea] | 8.85
3 | CC(C)Oc1cc(CN)ccc1COc1ccc(NC(=O)NCc2ccc3c(c2)CN(C2CCC(=O)NC2=O)C3=O)cc1 (centres unmarked) [Example 24, 1-(4-{[4-(aminomethyl)-2-(propan-2-yloxy)phenyl]methoxy}phenyl)-3-{[2-(2,6-dioxopiperidin-3-yl)-1-oxo-2,3-dihydro-1H-isoindol-5-yl]methyl}urea] | 10.04
4 | NCc1ccc(COc2ccc(NC(=O)NCc3ccc4c(c3)CN(C3CCC(=O)NC3=O)C4=O)cc2)c(Cl)c1 (centres unmarked) [Example 25, 1-(4-{[4-(aminomethyl)-2-chlorophenyl]methoxy}phenyl)-3-{[2-(2,6-dioxopiperidin-3-yl)-1-oxo-2,3-dihydro-1H-isoindol-5-yl]methyl}urea] | 5.50
5 | NCc1ccc(COc2ccc(NC(=O)NCc3ccc4c(c3)CN(C3CCC(=O)NC3=O)C4=O)cc2)c(OC2COC2)c1 (centres unmarked) [Example 26, 1-(4-{[4-(aminomethyl)-2-(oxetan-3-yloxy)phenyl]methoxy}phenyl)-3-{[2-(2,6-dioxopiperidin-3-yl)-1-oxo-2,3-dihydro-1H-isoindol-5-yl]methyl}urea] | 6.92
6 | NCc1ccc(COc2ccc(NC(=O)NCc3ccc4c(c3)CN(C3CCC(=O)NC3=O)C4=O)cc2)c(C2CC2)c1 (centres unmarked) [Example 27, 1-(4-{[4-(aminomethyl)-2-cyclopropylphenyl]methoxy}phenyl)-3-{[2-(2,6-dioxopiperidin-3-yl)-1-oxo-2,3-dihydro-1H-isoindol-5-yl]methyl}urea] | 6.15
7 | Nc1ccccc1COc1ccc(NC(=O)NCc2ccc3c(c2)CN(C2CCC(=O)NC2=O)C3=O)cc1 (centres unmarked) [Example 28, 1-(4-((2-aminobenzyl)oxy)phenyl)-3-((2-(2,6-dioxopiperidin-3-yl)-1-oxoisoindolin-5-yl)methyl)urea] | 10.20
8 | NCc1ccc(COc2ccc(NC(=O)NCc3ccc4c(c3)CN(C3CCC(=O)NC3=O)C4=O)cc2Cl)cc1 (centres unmarked) [Example 29, 1-(4-((4-(aminomethyl)benzyl)oxy)-3-chlorophenyl)-3-((2-(2,6-dioxopiperidin-3-yl)-1-oxoisoindolin-5-yl)methyl)urea] | 16.88
9 | CC(C)c1cc(CN)ccc1COc1ccc(NC(=O)NCc2ccc3c(c2)CN(C2CCC(=O)NC2=O)C3=O)cc1 (centres unmarked) [Example 30, 1-(4-{[4-(aminomethyl)-2-i-propylphenyl]methoxy}phenyl)-3-{[2-(2,6-dioxopiperidin-3-yl)-1-oxo-2,3-dihydro-1H-isoindol-5-yl]methyl}urea] | 10.86
10 | NCc1ccc(COc2ccc(NC(=O)NCc3ccc4c(c3)CN(C3CCC(=O)NC3=O)C4=O)cc2)c(OC(F)F)c1 (centres unmarked) [Example 31, 1-(4-{[4-(aminomethyl)-2-diflouromethoxyphenyl]methoxy}phenyl)-3-{[2-(2,6-dioxopiperidin-3-yl)-1-oxo-2,3-dihydro-1H-isoindol-5-yl]methyl}urea] | 7.07
11 | C[C@]1(N2Cc3cc(CNC(=O)Nc4ccc(OCc5ccc(CN)cc5)cc4)ccc3C2=O)CCC(=O)NC1=O [Example 32, 1-(4-{[4-(aminomethyl)phenyl]methoxy}phenyl)-3-({2-[(3S)-3-methyl-2,6-dioxopiperidin-3-yl]-1-oxo-2,3-dihydro-1H-isoindol-5-yl}methyl)urea] | 22.76
12 | C[C@@]1(N2Cc3cc(CNC(=O)Nc4ccc(OCc5ccc(CN)cc5)cc4)ccc3C2=O)CCC(=O)NC1=O [Example 33, 1-(4-{[4-(aminomethyl)phenyl]methoxy}phenyl)-3-({2-[(3R)-3-methyl-2,6-dioxopiperidin-3-yl]-1-oxo-2,3-dihydro-1H-isoindol-5-yl}methyl)urea] | 60.95
13 | NC[C@H]1CC[C@H](COc2ccc(NC(=O)NCc3ccc4c(c3)CN(C3CCC(=O)NC3=O)C4=O)cc2)CC1 (some centres unmarked) [Example 34, 3-{[2-(2,6-dioxopiperidin-3-yl)-1-oxo-2,3-dihydro-1H-isoindol-5-yl]methyl}-1-(4-{[(1r,4r)-4-(aminomethyl)cyclohexyl]methoxy}phenyl)urea] | 7.47
14 | NCc1ccc(CO[C@H]2CC[C@H](NC(=O)NCc3ccc4c(c3)CN(C3CCC(=O)NC3=O)C4=O)CC2)cc1 (some centres unmarked) [Example 35, 3-{[2-(2,6-dioxopiperidin-3-yl)-1-oxo-2,3-dihydro-1H-isoindol-5-yl]methyl}-1-[(1r,4r)-4-{[4-(aminomethyl)phenyl]methoxy}cyclohexyl]urea] | 17.59
